Assay results: patent US20250177363A1, “SUBSTITUTED IMIDAZOPYRIDINYL COMPOUNDS USEFUL AS INHIBITORS OF TLR9” (Bristol-Myers Squibb Company, priority 2022, published 2025)

What was measured:
Format in all cases: cell-based
[1] = molecular target: T1, human TLR8 (Homo sapiens, UniProt Q9NR97); experiment: TLR8 inhibition reporter assay (HEK-Blue, SEAP); conditions: HEK-Blue cells overexpressing human TLR8, ligand R848 14.25 μM, 22 hour incubation
T1 construct: host or cells: HEK-Blue cells
T1 sequence (Q9NR97 27-1041): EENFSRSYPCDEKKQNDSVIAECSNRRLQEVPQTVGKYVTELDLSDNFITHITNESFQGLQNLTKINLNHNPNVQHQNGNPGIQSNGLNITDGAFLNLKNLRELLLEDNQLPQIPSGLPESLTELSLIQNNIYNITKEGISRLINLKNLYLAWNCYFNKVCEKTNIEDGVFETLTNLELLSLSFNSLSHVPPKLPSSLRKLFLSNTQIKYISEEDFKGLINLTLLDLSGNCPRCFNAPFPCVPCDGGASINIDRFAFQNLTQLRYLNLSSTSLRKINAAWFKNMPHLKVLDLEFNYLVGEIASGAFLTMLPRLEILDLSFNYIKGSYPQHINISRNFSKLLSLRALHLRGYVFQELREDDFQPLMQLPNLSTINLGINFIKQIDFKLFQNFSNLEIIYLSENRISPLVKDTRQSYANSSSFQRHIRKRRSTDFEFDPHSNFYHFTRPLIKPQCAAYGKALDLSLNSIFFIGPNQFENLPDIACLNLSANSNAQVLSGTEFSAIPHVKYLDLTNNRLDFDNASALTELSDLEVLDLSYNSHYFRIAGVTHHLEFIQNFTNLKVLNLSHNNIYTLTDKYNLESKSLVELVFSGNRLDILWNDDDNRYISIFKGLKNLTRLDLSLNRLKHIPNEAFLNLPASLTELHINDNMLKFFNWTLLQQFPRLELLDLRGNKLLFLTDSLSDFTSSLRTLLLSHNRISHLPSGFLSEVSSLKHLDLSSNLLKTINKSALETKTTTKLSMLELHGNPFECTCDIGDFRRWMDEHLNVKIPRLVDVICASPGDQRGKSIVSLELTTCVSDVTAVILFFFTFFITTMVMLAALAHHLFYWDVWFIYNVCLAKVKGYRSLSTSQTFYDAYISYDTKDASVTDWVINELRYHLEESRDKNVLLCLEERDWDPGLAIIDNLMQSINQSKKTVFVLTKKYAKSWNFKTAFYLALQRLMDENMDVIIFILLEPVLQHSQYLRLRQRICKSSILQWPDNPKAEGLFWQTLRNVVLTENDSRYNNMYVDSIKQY
Method: (§1) TLR7/8/9 Inhibition Reporter Assays
(§2) HEK-Blue™-cells (Invivogen) overexpressing human TLR7. TLR8 or TLR9 receptors were used for screening inhibitors of these receptors using an inducible SEAP (secreted embryonic alkaline phosphatase) reporter gene under the control of the IFN-β minimal promoter fused to five NF-κB and AP-1-binding sites. Cells are seeded into Greiner 384 well plates (15000 cells per well) that are pre dispensed (by ECHO) with testing compounds in DMSO to yield a final dose response concentration range of 0.85 nM-50 μM. After a 60 minute compound pre-treatment in 37 degree incubator, the cells are then stimulated with a TLR7 ligand (gardiquimod at a final concentration of 2.5 μM), TLR8 ligand (R848 at a final concentration of 14.25 μM) or TLR9 ligand (ODN2006 at a final concentration of 200 nM) to activate NF-κB and AP-1 which induce the production of SEAP. After a 22 hour incubation at 37° C., 5% CO2, SEAP levels are determined with the addition of HEK-Blue™ Detection reagent (Invivogen), a cell culture medium that allows for detection of SEAP, according to manufacturer's specifications. The percent inhibition is determined as the % reduction in the HEK-Blue signal present in […].

[2] = molecular target: T2, human TLR7 (Homo sapiens, UniProt Q9NYK1); experiment: TLR7 inhibition reporter assay (HEK-Blue, SEAP); conditions: HEK-Blue cells overexpressing human TLR7, ligand gardiquimod 2.5 μM, 22 hour incubation
T2 construct: host or cells: HEK-Blue cells
T2 sequence (Q9NYK1 27-1049): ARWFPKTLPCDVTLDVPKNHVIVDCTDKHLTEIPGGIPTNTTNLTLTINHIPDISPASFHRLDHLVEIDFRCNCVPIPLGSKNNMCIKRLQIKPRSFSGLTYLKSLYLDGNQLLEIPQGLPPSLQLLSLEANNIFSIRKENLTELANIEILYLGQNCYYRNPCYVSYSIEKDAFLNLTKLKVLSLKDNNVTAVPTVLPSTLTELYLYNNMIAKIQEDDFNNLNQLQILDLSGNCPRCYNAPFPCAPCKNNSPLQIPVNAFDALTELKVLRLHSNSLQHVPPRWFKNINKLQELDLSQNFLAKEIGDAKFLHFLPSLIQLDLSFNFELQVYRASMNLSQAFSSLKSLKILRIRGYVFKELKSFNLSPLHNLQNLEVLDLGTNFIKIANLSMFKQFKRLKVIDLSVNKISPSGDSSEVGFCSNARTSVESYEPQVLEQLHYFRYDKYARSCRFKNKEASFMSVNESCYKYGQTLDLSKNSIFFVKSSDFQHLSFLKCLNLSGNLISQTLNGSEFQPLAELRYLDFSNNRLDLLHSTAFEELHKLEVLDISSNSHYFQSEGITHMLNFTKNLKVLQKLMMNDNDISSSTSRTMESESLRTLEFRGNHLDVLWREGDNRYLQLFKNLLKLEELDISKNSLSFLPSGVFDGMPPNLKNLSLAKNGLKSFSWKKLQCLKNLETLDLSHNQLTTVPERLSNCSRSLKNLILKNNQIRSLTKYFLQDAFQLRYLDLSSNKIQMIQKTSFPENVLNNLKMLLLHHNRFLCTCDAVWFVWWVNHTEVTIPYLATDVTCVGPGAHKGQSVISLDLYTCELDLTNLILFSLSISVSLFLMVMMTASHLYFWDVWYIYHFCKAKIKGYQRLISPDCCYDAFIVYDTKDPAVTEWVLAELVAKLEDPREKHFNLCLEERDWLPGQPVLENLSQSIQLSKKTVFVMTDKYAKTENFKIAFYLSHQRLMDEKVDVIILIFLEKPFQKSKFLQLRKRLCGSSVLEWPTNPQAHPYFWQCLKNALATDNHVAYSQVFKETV
Method: as §1, §2

[3] = molecular target: T3, human TLR9 (Homo sapiens, UniProt Q9NR96); experiment: TLR9 inhibition reporter assay (HEK-Blue, SEAP); conditions: HEK-Blue cells overexpressing human TLR9, ligand ODN2006 200 nM, 22 hour incubation
T3 construct: host or cells: HEK-Blue cells
T3 sequence (Q9NR96 26-1032): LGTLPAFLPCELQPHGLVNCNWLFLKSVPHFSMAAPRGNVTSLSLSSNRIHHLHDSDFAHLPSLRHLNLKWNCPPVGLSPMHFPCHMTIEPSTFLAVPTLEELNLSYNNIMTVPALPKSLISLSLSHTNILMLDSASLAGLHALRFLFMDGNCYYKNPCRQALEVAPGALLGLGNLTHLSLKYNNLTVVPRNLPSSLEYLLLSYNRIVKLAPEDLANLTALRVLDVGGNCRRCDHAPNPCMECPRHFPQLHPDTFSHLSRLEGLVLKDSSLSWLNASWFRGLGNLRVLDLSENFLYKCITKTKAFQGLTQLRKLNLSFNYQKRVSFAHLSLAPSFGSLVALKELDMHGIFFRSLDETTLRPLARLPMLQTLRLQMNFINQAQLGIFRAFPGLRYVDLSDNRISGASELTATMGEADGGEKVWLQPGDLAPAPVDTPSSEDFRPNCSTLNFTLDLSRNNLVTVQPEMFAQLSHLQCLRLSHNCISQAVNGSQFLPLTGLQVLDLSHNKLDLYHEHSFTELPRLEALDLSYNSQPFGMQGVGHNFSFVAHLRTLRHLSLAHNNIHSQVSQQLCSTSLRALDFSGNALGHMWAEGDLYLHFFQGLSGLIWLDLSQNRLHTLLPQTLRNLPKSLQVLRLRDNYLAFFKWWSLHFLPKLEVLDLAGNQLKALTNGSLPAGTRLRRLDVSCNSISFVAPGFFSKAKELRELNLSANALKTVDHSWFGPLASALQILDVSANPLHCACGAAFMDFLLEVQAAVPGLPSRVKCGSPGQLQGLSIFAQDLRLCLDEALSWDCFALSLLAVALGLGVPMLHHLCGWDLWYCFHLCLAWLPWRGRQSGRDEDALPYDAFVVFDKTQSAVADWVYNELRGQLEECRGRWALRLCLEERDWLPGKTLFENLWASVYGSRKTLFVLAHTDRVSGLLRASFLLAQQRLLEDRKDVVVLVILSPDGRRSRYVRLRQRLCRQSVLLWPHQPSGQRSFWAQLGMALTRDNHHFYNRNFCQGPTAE
Method: as §1, §2

SMILES | IC50 [1] | IC50 [2] | IC50 [3]
COc1ccc(-c2nc3ccc(-c4ccc(N5CCN(C(C)C)CC5)cc4)nc3n2C2CC2)cc1OC [Example 55, 3-cyclopropyl-2-(3,4-dimethoxyphenyl)-5-(4-(4-isopropylpiperazin-1-yl)phenyl)-3H-imidazo[4,5-b]pyridine] | > 50000 nM | 40000 nM | 1400 nM
COc1ccc(-c2nc3ncc(-c4ccc(N5CCN(C(C)C)CC5)cc4)cc3n2C2CC2)cc1OC [Example 50, 1-cyclopropyl-2-(3,4-dimethoxyphenyl)-6-(4-(4-isopropylpiperazin-1-yl)phenyl)-1H-imidazo[4,5-b]pyridine] | 3400 nM | – | 320 nM
COc1ccc(-c2nc3ccc(-c4ccc(N5CCN(C(C)C)CC5)cc4)nc3n2C)cc1OC [Example 52, 2-(3,4-dimethoxyphenyl)-5-(4-(4-isopropylpiperazin-1-yl)phenyl)-3-methyl-3H-imidazo[4,5-b]pyridine] | > 50000 nM | 1200 nM | 640 nM
Cc1cc(-c2ccc(CN3CC4(C3)CN(C(C)C)C4)cc2)nc2c1nc(-c1ccc(S(C)(=O)=O)cc1)n2C1CC1 [Example 3, 3-cyclopropyl-5-(4-((6-isopropyl-2,6-diazaspiro[3.3]heptan-2-yl)methyl)phenyl)-7-methyl-2-(4-(methylsulfonyl)phenyl)-3H-imidazo[4,5-b]pyridine] | > 50000 nM | 710 nM | 190 nM
Cc1cc(-c2ccc(CN3CC4(C3)CN(C3COC3)C4)cc2)nc2c1nc(-c1ccc(S(C)(=O)=O)cc1)n2C1CC1 [Example 6, 3-cyclopropyl-7-methyl-2-(4-(methylsulfonyl)phenyl)-5-(4-((6-(oxetan-3-yl)-2,6-diazaspiro[3.3]heptan-2-yl)methyl)phenyl)-3H-imidazo[4,5-b]pyridine] | – | 15000 nM | 730 nM
CS(=O)(=O)c1ccc(-c2nc3ccc(-c4ccc(N5CCN(CCCN6CCOCC6)CC5)cc4)nc3n2C2CC2)cc1 [Example 56, 4-(3-(4-(4-(3-cyclopropyl-2-(4-(methylsulfonyl)phenyl)-3H-imidazo[4,5-b]pyridin-5-yl)phenyl)piperazin-1-yl)propyl) morpholine] | – | > 50000 nM | 280 nM
COc1ccc(-c2nc3c(C)cc(-c4ccc(N5CC6(C5)CN(C(C)C)C6)cc4)nc3n2C)cc1OC [Example 59, 2-(3,4-dimethoxyphenyl)-5-(4-(6-isopropyl-2,6-diazaspiro[3.3]heptan-2-yl)phenyl)-3,7-dimethyl-3H-imidazo[4,5-b]pyridine] | – | 1100 nM | 860 nM
Cc1cc(C2CCN(C3CC4CCC(C3)N4CC(C)C)CC2)nc2c1nc(-c1ccc(S(C)(=O)=O)cc1)n2C (single isomer, unassigned) [Example 29, 5-(1-(8-isobutyl-8-azabicyclo[3.2.1]octan-3-yl)piperidin-4-yl)-3,7-dimethyl-2-(4-(methylsulfonyl)phenyl)-3H-imidazo[4,5-b]pyridine] | – | – | 550 nM

The next compounds have a lower IC50 [3] than those just listed; values first:

IC50 [1] | IC50 [2] | IC50 [3] | SMILES
> 50000 nM | 1900 nM | 61 nM | Cc1cc(C2CCN(C3CCN(CC4CC4)CC3)CC2)nc2c1nc(-c1ccc(S(C)(=O)=O)cc1)n2C [Example 23, 5-(1′-(cyclopropylmethyl)-[1,4′-bipiperidin]-4-yl)-3,7-dimethyl-2-(4-(methylsulfonyl)phenyl)-3H-imidazo[4,5-b]pyridine]
– | 2600 nM | 71 nM | Cc1cc(-c2ccc(CN3CC4(C3)CN(CC(C)C)C4)cc2)nc2c1nc(-c1ccc(S(C)(=O)=O)cc1)n2C1CC1 [Example 4, 3-cyclopropyl-5-(4-((6-isobutyl-2,6-diazaspiro[3.3]heptan-2-yl)methyl)phenyl)-7-methyl-2-(4-(methylsulfonyl)phenyl)-3H-imidazo[4,5-b]pyridine]
– | – | 74 nM | COc1ccc(-c2nc3ncc(C4CCN(C5CCN(CC(C)C)CC5)CC4)cc3[nH]2)cc1OC [Example 12, 2-(3,4-dimethoxyphenyl)-6-(1′-isobutyl-[1,4′-bipiperidin]-4-yl)-1H-imidazo[4,5-b]pyridine]
– | 5800 nM | 140 nM | COc1cc(-c2nc3c(C)cc(-c4ccc(N5CCN(C(C)C)CC5)cc4)nc3n2C)cn2ncnc12 [Example 45, 5-(4-(4-isopropylpiperazin-1-yl)phenyl)-2-(8-methoxy-[1,2,4]triazolo[1,5-a]pyridin-6-yl)-3,7-dimethyl-3H-imidazo[4,5-b]pyridine]
